Test results as given in ChEMBL document CHEMBL1777702, “N⁴-[Alkyl-(hydroxyphosphono)phosphonate]-cytidine-new drugs covalently linking antimetabolites (5-FdU, araU or AZT) with bone-targeting bisphosphonates (alendronate or pamidronate)” (Bioorg Med Chem, 2011).
pIC50: −log10 of the molar value.

Assays:
[1] = test system: RAW264.7; experiment: cells; conditions: Mus musculus, RAW264.7, 72 h
Description: Cytotoxicity against mouse RAW264.7 cells after 72 hrs by resazurin assay

[2] = Cytotoxicity against mouse LLC cells after 24 hrs by resazurin assay; type: functional, cell-based, Lewis lung carcinoma; conditions: for pIC50: Mus musculus, Lewis lung carcinoma, 24 h, read-out: IC50
[3] = Cytotoxicity against mouse LLC cells after 72 hrs by resazurin assay; type: functional, cell-based; conditions: Lewis lung carcinoma
[4] = Binding affinity to 7 gram of hydroxyapatite at 246 mg after 24 hrs by UV-spectrophotometer analysis; type: physicochemical
[5] = test system: RAW264.7
Description: Cytotoxicity against mouse RAW264.7 cells after 24 hrs by resazurin assay

[6] = Chemical stability of the compound in hydrochloric acid at pH 2; type: physicochemical; conditions: buffer
[7] = test system: OVCAR-3; experiment: Growth inhibition of human OVCAR3 cells assessed as cell growth at 10 uM after 48 hrs by SRB assay relative to control; type: functional; conditions: OVCAR-3, 48 h, read-out: Activity
[8] = test system: RAW264.7; experiment: Selectivity ratio of IC50 for mouse RAW264.7 cells to IC50 for mouse LLC cells
[9] = test system: EKVX; experiment: Growth inhibition of human EKVX cells assessed as cell growth at 10 uM after 48 hrs by SRB assay relative to control; type: functional; conditions: read-out: Activity
[10] = test system: SNB-75; experiment: Growth inhibition of human SNB75 cells assessed as cell growth at 10 uM after 48 hrs by SRB assay relative to control; type: functional; conditions: SNB-75, 48 h, read-out: Activity
[11] = test system: NCI-H322M; experiment: Growth inhibition of human NCI-H322M cells assessed as cell growth at 10 uM after 48 hrs by SRB assay relative to control; type: functional; conditions: read-out: Activity
[12] = test system: HL-60(TB); experiment: Growth inhibition of human HL-60(TB) cells assessed as cell growth at 10 uM after 48 hrs by SRB assay relative to control; type: functional; conditions: HL-60, 48 h, read-out: Activity
[13] = test system: MDA-MB-435; experiment: Growth inhibition of human MDA-MB-435 cells assessed as cell growth at 10 uM after 48 hrs by SRB assay relative to control; type: functional; conditions: MDA-MB-435, 48 h, read-out: Activity
[14] = Binding affinity to 7 gram of hydroxyapatite at 246 mg followed by acidified with hydrochloric acid at pH 2 measured after 24 hrs by UV-spectrophotometer analysis; type: physicochemical; conditions: pH 2, 24 h
[15] = test system: CAKI-1; experiment: Growth inhibition of human Caki1 cells assessed as cell growth at 10 uM after 48 hrs by SRB assay relative to control; type: functional; conditions: CAKI-1, 48 h, read-out: Activity
[16] = test system: HOP-62; experiment: Growth inhibition of human HOP62 cells assessed as cell growth at 10 uM after 48 hrs by SRB assay relative to control; type: functional; conditions: HOP-62, 48 h, read-out: Activity
[17] = test system: SF-268; experiment: Growth inhibition of human SF268 cells assessed as cell growth at 10 uM after 48 hrs by SRB assay relative to control; type: functional; conditions: SF-268, 48 h, read-out: Activity
[18] = Binding affinity to 5 gram of hydroxyapatite at 246 mg after 24 hrs by UV-spectrophotometer analysis; type: physicochemical
[19] = test system: SF-539; experiment: Growth inhibition of human SF539 cells assessed as cell growth at 10 uM after 48 hrs by SRB assay relative to control; type: functional; conditions: SF-539, 48 h, read-out: Activity
[20] = test system: Malme-3M; experiment: Growth inhibition of human MALME-3M cells assessed as cell growth at 10 uM after 48 hrs by SRB assay relative to control; type: functional; conditions: read-out: Activity

With `O=c1[nH]c(=O)n([C@H]2C[C@H](O)[C@@H](CO)O2)cc1F` [FLOXURIDINE] the pIC50 [1] was 4.52, the pIC50 [2] was 4.85 and the pIC50 [3] was 5.70. For the same compound, the Activity [4] was 15% and the IC50 [5] was “Not Active”.
`NCCCC(O)(P(=O)(O)O)P(=O)(O)O` gave a pIC50 [2] of 6.37 and a pIC50 [3] of 5.58.
With `O=c1nc(NCCCC(O)(P(=O)([O-])O)P(=O)([O-])O)c(F)cn1[C@H]1C[C@H](O)[C@@H](CO)O1.[Na+].[Na+]` the Stability [6] was “Stable”, the growth at 10 µM [7] was 88% and the pIC50 [1] was 4.60. For the same compound, the “Ratio IC50” value [8] was 167, the growth at 10 µM [9] was 82% and the IC50 ([2]; lewis lung carcinoma) was “Not Active”. It also gave a growth at 10 µM [10] of 87%, a growth at 10 µM [11] of 89% and a growth at 10 µM [12] of 62%. For the same compound, the growth at 10 µM [13] was 87%, the Activity [14] was 74% and the growth at 10 µM [15] was 79%. The pIC50 [3] was 6.82, the growth at 10 µM [16] was 93% and the growth at 10 µM [17] was 87%. For the same compound, the Activity [4] was 87%, the IC50 [5] was “Not Active” and the Activity [18] was 41%. It also gave a growth at 10 µM [19] of 95% and a growth at 10 µM [20] of 89%.
